Drawing on patent publication US9340590B2 (priority 2011, dated 2016), this text covers IC50 for seven compounds.

Assay [1] deals with hNav1.5 (Homo sapiens, UniProt Q14524). The assay is described as follows: cell-based.
For assay [2], the target named is hNav1.3 (Homo sapiens, UniProt Q9NY46). Nature of the assay: cell-based. The conditions noted are these: IonWorks Quattro, read-out: IWQ Use Nav1.3. (In patch-clamp work, channel activity is measured electrically.)
Where [3] appears, read: IonWorks Quattro, clamped to −110 mV, depolarized to −10 mV, 5 min after compound, n=2, read-out: IWQ Use Nav1.5.
Where [4] appears, read: clamped to −110 mV, depolarized to −10 mV, 5 min after compound, n=2.

Where two headings read alike, the source gives them in different places. Positions of bridges follow the written chain, without caps; N, C: chain ends. Residues, ends and D or L forms follow the SMILES beside them.

hNav1.3, sequence (Q9NY46 whole entry, looked up): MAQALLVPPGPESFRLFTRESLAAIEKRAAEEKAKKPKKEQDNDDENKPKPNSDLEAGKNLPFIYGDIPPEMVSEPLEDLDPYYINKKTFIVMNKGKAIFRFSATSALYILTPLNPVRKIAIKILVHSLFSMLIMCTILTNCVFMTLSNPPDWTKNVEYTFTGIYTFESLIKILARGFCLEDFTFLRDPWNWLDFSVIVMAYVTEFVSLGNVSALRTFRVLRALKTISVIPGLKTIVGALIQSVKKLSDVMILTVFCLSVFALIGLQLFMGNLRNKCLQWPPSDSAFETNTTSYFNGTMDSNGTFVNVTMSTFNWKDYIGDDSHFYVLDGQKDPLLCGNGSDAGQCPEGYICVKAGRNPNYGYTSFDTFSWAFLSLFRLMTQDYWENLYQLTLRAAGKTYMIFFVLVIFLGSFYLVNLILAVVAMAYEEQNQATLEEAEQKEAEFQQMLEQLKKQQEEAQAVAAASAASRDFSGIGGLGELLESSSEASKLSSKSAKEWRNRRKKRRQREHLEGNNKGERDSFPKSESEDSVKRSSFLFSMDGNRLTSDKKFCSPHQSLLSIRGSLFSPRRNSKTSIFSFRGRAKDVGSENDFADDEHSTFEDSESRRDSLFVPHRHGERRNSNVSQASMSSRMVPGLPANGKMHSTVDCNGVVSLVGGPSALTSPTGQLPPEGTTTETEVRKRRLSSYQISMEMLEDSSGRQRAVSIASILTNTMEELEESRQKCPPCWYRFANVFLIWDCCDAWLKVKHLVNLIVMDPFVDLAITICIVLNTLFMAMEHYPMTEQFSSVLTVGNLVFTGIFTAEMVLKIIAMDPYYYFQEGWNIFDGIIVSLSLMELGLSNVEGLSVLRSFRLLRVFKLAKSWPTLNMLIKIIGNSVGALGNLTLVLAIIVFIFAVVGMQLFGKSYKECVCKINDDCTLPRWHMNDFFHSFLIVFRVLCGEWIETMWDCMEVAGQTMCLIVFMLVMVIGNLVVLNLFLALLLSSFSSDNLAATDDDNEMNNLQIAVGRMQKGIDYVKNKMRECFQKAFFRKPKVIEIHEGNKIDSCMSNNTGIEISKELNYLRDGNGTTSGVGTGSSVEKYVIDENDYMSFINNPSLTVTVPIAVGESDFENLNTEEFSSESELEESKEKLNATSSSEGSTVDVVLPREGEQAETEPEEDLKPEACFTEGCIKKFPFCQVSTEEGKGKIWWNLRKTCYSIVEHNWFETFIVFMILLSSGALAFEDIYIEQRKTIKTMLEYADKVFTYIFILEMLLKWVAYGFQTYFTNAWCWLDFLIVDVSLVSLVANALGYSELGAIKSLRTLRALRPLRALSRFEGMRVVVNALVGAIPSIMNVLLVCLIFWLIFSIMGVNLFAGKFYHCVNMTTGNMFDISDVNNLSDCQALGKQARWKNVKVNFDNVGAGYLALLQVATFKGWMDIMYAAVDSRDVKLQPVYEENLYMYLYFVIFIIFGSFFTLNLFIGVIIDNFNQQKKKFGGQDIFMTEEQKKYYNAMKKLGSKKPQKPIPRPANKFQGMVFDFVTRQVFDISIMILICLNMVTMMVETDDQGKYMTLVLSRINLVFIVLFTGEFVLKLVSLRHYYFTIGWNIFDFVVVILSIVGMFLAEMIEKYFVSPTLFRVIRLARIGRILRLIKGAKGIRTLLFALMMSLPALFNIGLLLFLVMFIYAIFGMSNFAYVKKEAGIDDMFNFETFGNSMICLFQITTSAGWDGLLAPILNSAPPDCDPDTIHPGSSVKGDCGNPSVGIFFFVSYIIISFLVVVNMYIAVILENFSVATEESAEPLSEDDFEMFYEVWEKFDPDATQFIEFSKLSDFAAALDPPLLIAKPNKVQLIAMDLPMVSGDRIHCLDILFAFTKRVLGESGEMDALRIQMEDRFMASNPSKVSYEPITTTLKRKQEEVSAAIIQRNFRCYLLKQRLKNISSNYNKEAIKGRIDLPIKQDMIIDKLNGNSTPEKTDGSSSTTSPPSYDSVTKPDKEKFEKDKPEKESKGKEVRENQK
hNav1.5, sequence (Q14524 whole entry, looked up): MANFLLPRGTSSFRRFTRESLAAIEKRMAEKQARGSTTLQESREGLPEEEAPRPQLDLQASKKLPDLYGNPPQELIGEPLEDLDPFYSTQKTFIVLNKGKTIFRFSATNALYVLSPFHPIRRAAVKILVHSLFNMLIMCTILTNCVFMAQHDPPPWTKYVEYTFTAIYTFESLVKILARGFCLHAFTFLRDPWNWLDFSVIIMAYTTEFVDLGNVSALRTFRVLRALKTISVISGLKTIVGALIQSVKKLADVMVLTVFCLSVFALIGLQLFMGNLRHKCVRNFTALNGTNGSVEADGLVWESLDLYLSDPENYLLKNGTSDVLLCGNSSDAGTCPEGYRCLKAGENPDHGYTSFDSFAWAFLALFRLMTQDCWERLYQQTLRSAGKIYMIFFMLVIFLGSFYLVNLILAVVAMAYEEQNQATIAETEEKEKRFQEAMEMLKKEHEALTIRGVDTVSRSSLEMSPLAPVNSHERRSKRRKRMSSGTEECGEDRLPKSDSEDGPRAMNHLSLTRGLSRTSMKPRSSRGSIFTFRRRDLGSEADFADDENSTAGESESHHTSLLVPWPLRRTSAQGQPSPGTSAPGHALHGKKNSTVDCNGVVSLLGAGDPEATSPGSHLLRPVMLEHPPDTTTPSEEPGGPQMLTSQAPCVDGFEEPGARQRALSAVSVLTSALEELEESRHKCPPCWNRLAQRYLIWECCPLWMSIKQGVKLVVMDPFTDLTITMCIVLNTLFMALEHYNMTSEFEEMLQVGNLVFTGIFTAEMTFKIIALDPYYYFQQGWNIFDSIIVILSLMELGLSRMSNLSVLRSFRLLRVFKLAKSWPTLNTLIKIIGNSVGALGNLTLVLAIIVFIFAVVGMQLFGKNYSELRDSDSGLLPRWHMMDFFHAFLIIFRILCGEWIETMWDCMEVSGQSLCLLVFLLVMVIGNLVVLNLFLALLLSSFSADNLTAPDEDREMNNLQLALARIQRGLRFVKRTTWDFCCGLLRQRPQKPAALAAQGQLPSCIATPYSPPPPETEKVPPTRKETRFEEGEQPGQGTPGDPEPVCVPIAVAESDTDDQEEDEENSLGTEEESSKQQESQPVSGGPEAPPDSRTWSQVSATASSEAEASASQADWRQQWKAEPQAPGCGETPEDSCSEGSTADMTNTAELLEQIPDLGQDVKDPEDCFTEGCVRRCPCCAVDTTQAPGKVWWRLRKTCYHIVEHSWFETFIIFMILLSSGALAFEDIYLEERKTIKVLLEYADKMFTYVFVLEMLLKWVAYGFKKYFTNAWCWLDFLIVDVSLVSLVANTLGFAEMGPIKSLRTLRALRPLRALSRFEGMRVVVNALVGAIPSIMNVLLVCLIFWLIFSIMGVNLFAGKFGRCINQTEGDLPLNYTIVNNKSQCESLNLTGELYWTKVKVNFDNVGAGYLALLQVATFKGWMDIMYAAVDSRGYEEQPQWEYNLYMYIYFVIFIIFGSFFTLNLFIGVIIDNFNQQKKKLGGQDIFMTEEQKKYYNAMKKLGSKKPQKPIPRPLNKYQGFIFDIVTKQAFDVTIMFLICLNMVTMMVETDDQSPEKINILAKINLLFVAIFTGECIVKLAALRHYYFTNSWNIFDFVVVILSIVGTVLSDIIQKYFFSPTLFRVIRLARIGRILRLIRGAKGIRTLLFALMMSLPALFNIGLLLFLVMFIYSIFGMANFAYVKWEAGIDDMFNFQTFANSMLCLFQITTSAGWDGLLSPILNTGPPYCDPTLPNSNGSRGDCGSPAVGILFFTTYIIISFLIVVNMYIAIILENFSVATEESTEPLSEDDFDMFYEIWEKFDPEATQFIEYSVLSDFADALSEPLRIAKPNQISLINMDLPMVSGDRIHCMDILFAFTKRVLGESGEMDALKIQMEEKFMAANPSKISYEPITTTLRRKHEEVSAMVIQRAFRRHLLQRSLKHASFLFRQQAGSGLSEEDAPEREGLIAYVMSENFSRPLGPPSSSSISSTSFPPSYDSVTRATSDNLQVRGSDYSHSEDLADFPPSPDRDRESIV

With `CC[C@H](C)[C@@H]1NC(=O)[C@@H]2CSSC[C@@H]3NC(=O)[C@H](C(C)C)NC(=O)[C@H](CC(C)C)NC(=O)[C@H](CC(N)=O)NC(=O)[C@@H]4CCCN4C(=O)[C@H](CCCNC(=N)N)NC(=O)[C@H](CSSC[C@H](NC(=O)[C@@H](N)CC(=O)O)C(=O)N[C@@H](CC(C)C)C(=O)NCC(=O)N[C@@H](Cc4ccccc4)C(=O)N[C@@H](CCC(=O)O)C(=O)N[C@@H](CCCNC(=N)N)C(=O)N[C@@H](CCCCN)C(=O)N2)NC(=O)[C@H](CSSC[C@@H](C(=O)N[C@@H](CCCCN)C(=O)N[C@@H](Cc2ccc(O)cc2)C(=O)N[C@H](C(=O)N[C@@H](Cc2ccccc2)C(N)=O)C(C)C)NC(=O)[C@H](Cc2c[nH]c4ccccc24)NC(=O)[C@H](CCCCN)NC(=O)[C@H](Cc2cnc[nH]2)NC(=O)[C@H]([C@@H](C)O)NC(=O)[C@H](CCCNC(=N)N)NC(=O)[C@H](CO)NC3=O)NC(=O)[C@H](CCCCN)NC(=O)[C@H](CC(=O)O)NC(=O)[C@H](CC(N)=O)NC(=O)[C@H](CC(=O)O)NC(=O)[C@@H]2CCCN2C1=O` [SEQ ID NO: 144] (H-DCLGFERKCIPDNDKCCRPNLVCSRTHKWCKYVF-NH2; disulfide 2-17, 9-23, 16-30), the results for the IC50 in assay [1] (setting [3]) and in assay [2] (setting [4]) were 9.39 µM and 20.4 µM, respectively.

Regarding `CSCC[C@@H]1NC(=O)[C@H](Cc2ccccc2)NC(=O)CNC(=O)[C@H](CC(C)C)NC(=O)[C@@H](NC(=O)[C@@H](N)CC(=O)O)CSSC[C@@H]2NC(=O)[C@@H]3CSSC[C@@H](C(=O)N[C@@H](CCCCN)C(=O)N[C@@H](Cc4ccc(O)cc4)C(=O)N[C@H](C(=O)N[C@@H](Cc4ccccc4)C(N)=O)C(C)C)NC(=O)[C@H](Cc4c[nH]c5ccccc45)NC(=O)[C@H](CCCCN)NC(=O)[C@H](Cc4cnc[nH]4)NC(=O)[C@H]([C@@H](C)O)NC(=O)[C@H](CCCNC(=N)N)NC(=O)[C@H](CO)NC(=O)[C@H](CSSC[C@H](NC(=O)[C@H](CCCCN)NC(=O)[C@H](CCCNC(=N)N)NC1=O)C(=O)N[C@@H](CCC(=O)O)C(=O)N1CCC[C@H]1C(=O)N[C@@H](CC(=O)O)C(=O)N[C@@H](CC(N)=O)C(=O)N[C@@H](CC(=O)O)C(=O)N[C@@H](CCCCN)C(=O)N3)NC(=O)[C@H](C(C)C)NC(=O)[C@H](CC(C)C)NC(=O)[C@H](CC(N)=O)NC(=O)[C@@H]1CCCN1C(=O)[C@H](CCCNC(=N)N)NC2=O` [SEQ ID NO: 146, [Glu10]GpTx-1] (H-DCLGFMRKCEPDNDKCCRPNLVCSRTHKWCKYVF-NH2; disulfide 2-17, 9-23, 16-30), the IC50 in assay [1] (IonWorks Quattro, Use, read-out: IWQ Use Nav1.5) is 9.55 µM; in assay [2] (Use), 0.15 µM.

Consider `CC[C@H](C)[C@@H]1NC(=O)[C@@H]2CSSC[C@@H]3NC(=O)[C@H](C(C)C)NC(=O)[C@H](CC(C)C)NC(=O)[C@H](CC(N)=O)NC(=O)[C@@H]4CCCN4C(=O)[C@H](CCCNC(=N)N)NC(=O)[C@H](CSSC[C@H](NC(=O)[C@@H](N)CC(=O)O)C(=O)N[C@@H](CC(C)C)C(=O)NCC(=O)N[C@@H](Cc4ccccc4)C(=O)N[C@@H](CCSC)C(=O)N[C@@H](CCCNC(=N)N)C(=O)N[C@@H](CCCCN)C(=O)N2)NC(=O)[C@H](CSSC[C@@H](C(=O)N[C@@H](CCCCN)C(=O)N[C@@H](Cc2ccc(O)cc2)C(=O)N[C@H](C(=O)N[C@@H](Cc2ccccc2)C(N)=O)C(C)C)NC(=O)[C@H](Cc2c[nH]c4ccccc24)NC(=O)[C@H](CCCCN)NC(=O)[C@H](Cc2cnc[nH]2)NC(=O)[C@H]([C@@H](C)O)NC(=O)[C@H](CCCNC(=N)N)NC(=O)[C@H](CO)NC3=O)NC(=O)[C@H](CCCCN)NC(=O)[C@H](CC(=O)O)NC(=O)[C@H](CC(N)=O)NC(=O)[C@H](CC(=O)O)NC(=O)[C@H](CCC(=O)O)NC1=O` [SEQ ID NO: 147, [Glu11]GpTx-1] (H-DCLGFMRKCIEDNDKCCRPNLVCSRTHKWCKYVF-NH2; disulfide 2-17, 9-23, 16-30), for which the IC50 in assay [1] (IWQ Use Nav1.5 (μM)) is 15.6 µM; in assay [2] (Use), 0.21 µM.

Consider `CC[C@H](C)[C@@H]1NC(=O)[C@@H]2CSSC[C@@H]3NC(=O)[C@H](C(C)C)NC(=O)[C@H](CC(C)C)NC(=O)[C@H](CC(N)=O)NC(=O)[C@@H]4CCCN4C(=O)[C@H](CCCNC(=N)N)NC(=O)[C@H](CSSC[C@H](NC(=O)[C@@H](N)CC(=O)O)C(=O)N[C@@H](CCCNC(=N)N)C(=O)NCC(=O)N[C@@H](Cc4ccccc4)C(=O)N[C@@H](CCSC)C(=O)N[C@@H](CCCNC(=N)N)C(=O)N[C@@H](CCCCN)C(=O)N2)NC(=O)[C@H](CSSC[C@@H](C(=O)N[C@@H](CCCCN)C(=O)N[C@@H](Cc2ccc(O)cc2)C(=O)N[C@H](C(=O)N[C@@H](Cc2ccccc2)C(N)=O)C(C)C)NC(=O)[C@H](Cc2c[nH]c4ccccc24)NC(=O)[C@H](CCCCN)NC(=O)[C@H](Cc2cnc[nH]2)NC(=O)[C@H]([C@@H](C)O)NC(=O)[C@H](CCCNC(=N)N)NC(=O)[C@H](CO)NC3=O)NC(=O)[C@H](CCCCN)NC(=O)[C@H](CC(=O)O)NC(=O)[C@H](CC(N)=O)NC(=O)[C@H](CC(=O)O)NC(=O)[C@@H]2CCCN2C1=O` [SEQ ID NO: 155] (H-DCRGFMRKCIPDNDKCCRPNLVCSRTHKWCKYVF-NH2; disulfide 2-17, 9-23, 16-30), for which the IC50 in assay [1] (setting [3]) was found to be 8.45 µM; in assay [2] (setting [4]), 0.05 µM.

Turning to `CC[C@H](C)[C@@H]1NC(=O)[C@@H]2CSSC[C@@H]3NC(=O)[C@H](C(C)C)NC(=O)[C@H](CC(C)C)NC(=O)[C@H](CC(N)=O)NC(=O)[C@@H]4CCCN4C(=O)[C@H](CCCNC(=N)N)NC(=O)[C@H](CSSC[C@H](NC(=O)[C@@H](N)CC(=O)O)C(=O)N[C@@H](CC(C)C)C(=O)NCC(=O)N[C@@H](CCCNC(=N)N)C(=O)N[C@@H](CCSC)C(=O)N[C@@H](CCCNC(=N)N)C(=O)N[C@@H](CCCCN)C(=O)N2)NC(=O)[C@H](CSSC[C@@H](C(=O)N[C@@H](CCCCN)C(=O)N[C@@H](Cc2ccc(O)cc2)C(=O)N[C@H](C(=O)N[C@@H](Cc2ccccc2)C(N)=O)C(C)C)NC(=O)[C@H](Cc2c[nH]c4ccccc24)NC(=O)[C@H](CCCCN)NC(=O)[C@H](Cc2cnc[nH]2)NC(=O)[C@H]([C@@H](C)O)NC(=O)[C@H](CCCNC(=N)N)NC(=O)[C@H](CO)NC3=O)NC(=O)[C@H](CCCCN)NC(=O)[C@H](CC(=O)O)NC(=O)[C@H](CC(N)=O)NC(=O)[C@H](CC(=O)O)NC(=O)[C@@H]2CCCN2C1=O` [SEQ ID NO: 156] (H-DCLGRMRKCIPDNDKCCRPNLVCSRTHKWCKYVF-NH2; disulfide 2-17, 9-23, 16-30), the IC50 in assay [1] (setting [3]) stood at 12.6 µM; in assay [2] (setting [4]) it was 4.09 µM.

As for `CC[C@H](C)[C@@H]1NC(=O)[C@@H]2CSSC[C@@H]3NC(=O)[C@H](C(C)C)NC(=O)[C@H](CC(C)C)NC(=O)[C@H](CC(N)=O)NC(=O)[C@@H]4CCCN4C(=O)[C@H](CCCNC(=N)N)NC(=O)[C@H](CSSC[C@H](NC(=O)[C@@H](N)CC(=O)O)C(=O)N[C@@H](CC(C)C)C(=O)N[C@@H](Cc4c[nH]c5ccccc45)C(=O)N[C@@H](Cc4ccccc4)C(=O)N[C@@H](CCSC)C(=O)N[C@@H](CCCNC(=N)N)C(=O)N[C@@H](CCCCN)C(=O)N2)NC(=O)[C@H](CSSC[C@@H](C(=O)N[C@@H](CCCCN)C(=O)N[C@@H](Cc2ccc(O)cc2)C(=O)N[C@H](C(=O)N[C@@H](Cc2ccccc2)C(N)=O)C(C)C)NC(=O)[C@H](Cc2c[nH]c4ccccc24)NC(=O)[C@H](CCCCN)NC(=O)[C@H](Cc2cnc[nH]2)NC(=O)[C@H]([C@@H](C)O)NC(=O)[C@H](CCCNC(=N)N)NC(=O)[C@H](CO)NC3=O)NC(=O)[C@H](CCCCN)NC(=O)[C@H](CC(=O)O)NC(=O)[C@H](CC(N)=O)NC(=O)[C@H](CC(=O)O)NC(=O)[C@@H]2CCCN2C1=O` [SEQ ID NO: 169] (H-DCLWFMRKCIPDNDKCCRPNLVCSRTHKWCKYVF-NH2; disulfide 2-17, 9-23, 16-30), the IC50 turned out to be 10.3 µM in assay [1] (setting [3]) and 0.03 µM in assay [2] (setting [4]).

On to `CC[C@H](C)[C@@H]1NC(=O)[C@@H]2CSSC[C@@H]3NC(=O)[C@H](C(C)C)NC(=O)[C@H](CC(C)C)NC(=O)[C@H](CC(N)=O)NC(=O)[C@@H]4CCCN4C(=O)[C@H](CCCNC(=N)N)NC(=O)[C@H](CSSC[C@H](NC(=O)[C@@H](N)CC(=O)O)C(=O)N[C@@H](CC(C)C)C(=O)NCC(=O)N[C@@H](Cc4ccccc4)C(=O)N[C@@H](CCSC)C(=O)N[C@@H](C)C(=O)N[C@@H](CCCCN)C(=O)N2)NC(=O)[C@H](CSSC[C@@H](C(=O)N[C@@H](CCCCN)C(=O)N[C@@H](Cc2ccc(O)cc2)C(=O)N[C@H](C(=O)N[C@@H](Cc2ccccc2)C(N)=O)C(C)C)NC(=O)[C@H](Cc2c[nH]c4ccccc24)NC(=O)[C@H](CCCCN)NC(=O)[C@H](Cc2cnc[nH]2)NC(=O)[C@H]([C@@H](C)O)NC(=O)[C@H](CCCNC(=N)N)NC(=O)[C@H](CO)NC3=O)NC(=O)[C@H](CCCCN)NC(=O)[C@H](CC(=O)O)NC(=O)[C@H](CC(N)=O)NC(=O)[C@H](CC(=O)O)NC(=O)[C@@H]2CCCN2C1=O` [[Ala7]GpTx-1(1-34)] (H-DCLGFMAKCIPDNDKCCRPNLVCSRTHKWCKYVF-NH2; disulfide 2-17, 9-23, 16-30), for which the IC50 in assay [1] (IonWorks Quattro, use-dependent block, hNav1.5, read-out: IWQ Use Nav1.5) was determined as 21.5 µM; in assay [2] (use-dependent block, hNav1.3), 0.83 µM.
